Reference: PubChem BioAssay AID1963435 (Molecular Pharmacology Branch, DTP, NCI, 2024)

System: PANC-1 complex spheroid growth, percent test/control
Assay: Anticancer human tumor PANC-1 cell line growth inhibition [Asc];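 also: spheroids exposed to agents for 7 days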;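 as to viability, T/C: percent viability relative to DMSO vehicle wells taken as 100%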
Settings: for IC50: curve of first compound; for viability, T/C: stronger effect = lower value
In short: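 Tumor cells were grown as complex spheroids with human endothelial cells (HUVEC) and human mesenchymal stem cells as stroma. Agents were tested alone and in combination, in half-log steps down from the clinical Cmax, or from 10 microM where Cmax was unknown.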

C=CC(=O)N1CCN(c2nc(=O)n(-c3c(C)ccnc3C(C)C)c3nc(-c4c(O)cccc4F)c(F)cc23)C(C)C1 (configuration not stated) + Cc1c(S(C)(=O)=O)c(-c2cc(F)cc(N3CCN(c4ccc(NS(=O)(=O)c5ccc(NC(CCN6CCC(C(=O)OCCCP(=O)(O)O)CC6)CSc6ccccc6)c(S(=O)(=O)C(F)(F)F)c5)cc4)CC3)c2)c(-c2ccc(Cl)cc2)n1C(C)C
IC50 (second compound 0.0316 µM): > 10 µM
IC50 (second compound 0.1 µM): > 10 µM
IC50 (second compound 0.316 µM): > 10 µM
IC50 (second compound 1 µM): > 10 µM
IC50 (second compound 3.16 µM): > 10 µM
IC50 (second compound 10 µM): > 10 µM
viability, T/C (second compound 0.0316 µM, first compound 0.0316 µM): 98.5%
viability, T/C (second compound 0.0316 µM, first compound 0.1 µM): 95.1%
viability, T/C (second compound 0.0316 µM, first compound 0.316 µM): 93.7%
viability, T/C (second compound 0.0316 µM, first compound 1 µM): 89.7%
viability, T/C (second compound 0.0316 µM, first compound 3.16 µM): 98.5%
viability, T/C (second compound 0.0316 µM, first compound 10 µM): 88.2%
viability, T/C (second compound 0.1 µM, first compound 0.0316 µM): 99.3%
viability, T/C (second compound 0.1 µM, first compound 0.1 µM): 90.3%
viability, T/C (second compound 0.1 µM, first compound 0.316 µM): 105%
viability, T/C (second compound 0.1 µM, first compound 1 µM): 106%
viability, T/C (second compound 0.1 µM, first compound 3.16 µM): 88.8%
viability, T/C (second compound 0.1 µM, first compound 10 µM): 94.5%
viability, T/C (second compound 0.316 µM, first compound 0.0316 µM): 107%
viability, T/C (second compound 0.316 µM, first compound 0.1 µM): 97%
viability, T/C (second compound 0.316 µM, first compound 0.316 µM): 105%
viability, T/C (second compound 0.316 µM, first compound 1 µM): 105%
viability, T/C (second compound 0.316 µM, first compound 3.16 µM): 98.4%
viability, T/C (second compound 0.316 µM, first compound 10 µM): 98%
viability, T/C (second compound 1 µM, first compound 0.0316 µM): 96.2%
viability, T/C (second compound 1 µM, first compound 0.1 µM): 104%
viability, T/C (second compound 1 µM, first compound 0.316 µM): 107%
viability, T/C (second compound 1 µM, first compound 1 µM): 114%
viability, T/C (second compound 1 µM, first compound 3.16 µM): 95.6%
viability, T/C (second compound 1 µM, first compound 10 µM): 92.6%
viability, T/C (second compound 3.16 µM, first compound 0.0316 µM): 107%
viability, T/C (second compound 3.16 µM, first compound 0.1 µM): 109%
viability, T/C (second compound 3.16 µM, first compound 0.316 µM): 104%
viability, T/C (second compound 3.16 µM, first compound 1 µM): 102%
viability, T/C (second compound 3.16 µM, first compound 3.16 µM): 109%
viability, T/C (second compound 3.16 µM, first compound 10 µM): 92.4%
viability, T/C (second compound 10 µM, first compound 0.0316 µM): 166%
viability, T/C (second compound 10 µM, first compound 0.1 µM): 166%
viability, T/C (second compound 10 µM, first compound 0.316 µM): 162%
viability, T/C (second compound 10 µM, first compound 1 µM): 177%
viability, T/C (second compound 10 µM, first compound 3.16 µM): 175%
viability, T/C (second compound 10 µM, first compound 10 µM): 135%
